Results: EP4800018A1, “PAN-KRAS INHIBITOR AND USE THEREOF IN MEDICINES” (Betta Pharmaceuticals Co., Ltd., priority 2023, dated 2025)
Where two headings read alike, the source gives them in different places.

Tests used:
Type in all cases: cell-based
[1] = tested on: KRAS-G12D mutant tumor cells AGS; test: Cell Proliferation Inhibition Assay (AGS), Cell-titer GLO, 96 h; conditions: Homo sapiens, AGS, 96 h, read-out: AGS(G12D)
Summary of the method: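 AGS cells (KRAS-G12D) grown in low-attachment plates were exposed to compound for 96 h at 37°C. Viability was read by CellTiter-Glo luminescence and converted to % inhibition against max and blank wells. IC50 came from curve fitting.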

[2] = tested on: KRAS-G12V mutant tumor cells SW620; test: Cell Proliferation Inhibition Assay (SW620), Cell-titer GLO, 96 h; conditions: Homo sapiens, SW-620, 96 h, read-out: SW620(G12V)
Summary of the method: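 SW620 cells (1×10^3/well, low-attachment) were exposed to compound from 10000 to 0.03 nM (0.5% DMSO) for 96 h at 37°C. Viability was read by Cell-titer GLO luminescence. Inhibition was calculated relative to DMSO and blank wells, and IC50 obtained by curve fitting.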

KRAS G12D-cRAF = target: T1, KRAS G12D-cRAF (Homo sapiens, UniProt P01116, G12D); test: Cellular KRAS G12D-cRAF Binding Inhibition Assay (NanoBRET, AD293 stable cells); conditions: 3 h incubation, read-out: NanoBRET KRAS G12D
T1 construct: expressed in transfected cells
T1 sequence (P01116 1-188 isoform P01116-2 G12D): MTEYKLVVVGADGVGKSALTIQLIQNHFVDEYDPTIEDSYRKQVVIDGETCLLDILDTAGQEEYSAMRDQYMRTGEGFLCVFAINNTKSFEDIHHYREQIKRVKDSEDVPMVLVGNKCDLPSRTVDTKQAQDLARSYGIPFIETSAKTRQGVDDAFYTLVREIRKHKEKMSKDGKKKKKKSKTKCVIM
Summary of the method: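 AD293 cells stably expressing KRAS G12D-NanoLuc and cRAF RBD-HaloTag were seeded at 1×10^4 cells/well with NanoBRET 618 ligand overnight. BRET signal was converted to % inhibition of binding relative to max and blank wells, and IC50 came from curve fitting.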

KRAS G12V-cRAF = target: T2, KRAS G12V-cRAF (Homo sapiens, UniProt P01116, G12V); test: Cellular KRAS G12V-cRAF Binding Inhibition Assay (NanoBRET, AD293 stable cells); conditions: 3 h incubation, read-out: NanoBRET KRAS G12V
T2 construct: expressed in transfected cells
T2 sequence (P01116 1-188 isoform P01116-2 G12V): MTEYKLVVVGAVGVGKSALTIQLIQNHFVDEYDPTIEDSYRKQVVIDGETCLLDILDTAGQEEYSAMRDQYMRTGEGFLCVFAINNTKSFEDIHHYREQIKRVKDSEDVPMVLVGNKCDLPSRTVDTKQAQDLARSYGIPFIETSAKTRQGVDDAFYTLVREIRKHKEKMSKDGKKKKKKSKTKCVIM
Summary of the method: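 Live AD293 stable cells, NanoLuc donor with HaloTag NanoBRET 618 ligand acceptor added overnight. Inhibition percent from luminescence relative to max signal and medium blank; IC50 from curve fitting.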

[3] = AGS cells, 96 h incubation, Cell-titer GLO
[4] = SW620 cells, 96 h incubation, Cell-titer GLO

| IC50 [1, 3] [nM] | IC50 [2, 4] [nM] | IC50 (KRAS G12D-cRAF) [nM] | IC50 (KRAS G12V-cRAF) [nM] | SMILES | IC50 [1] [nM] | IC50 [2] [nM] |
| --- | --- | --- | --- | --- | --- | --- |
| 0.69 | 0.24 | 4.55 | 16.6 | CC1OCCCn2c(c3c4cc(ccc42)-c2csc(n2)CC(NC(=O)C2CC2C(F)F)C(=O)N2CCCC(N2)C(=O)OCC(C)(C)C3)-c2cc(N3CCC(N(C)C)CC3)cnc21 [Example 105, (1S,2S)-2-(difluoromethyl)-N-((1^5S,6^3S,4S,Z)-1^2-(4-(dimethylamino)piperidin-1-yl)-1^5,10,10-trimethyl-5,7-dioxo-1^8,1^9,6^1,6^2,6^3,6^4,6^5,6^6-octahydro-1^5H,1^7H-8-oxa-1(13,15)-pyrido[3',2':7,8][1,5]oxazonino[5,6-a]indola-2(4,2)-thiazola-6(1,3)-pyridazinacycloundecaphane-4-yl)cyclopropane-1-carboxamide] |  |  |
| 0.86 | 0.24 | 6.39 | 27.4 | CC1OCCCn2c(c3c4cc(ccc42)-c2csc(n2)CC(NC(=O)C2CC2C(F)F)C(=O)N2CCCC(N2)C(=O)OCC(C)(C)C3)-c2cc(N3CCC(N4CCOCC4)CC3)cnc21 [Example 106, (1S,2S)-2-(difluoromethyl)-N-((1^5S,6^3S,4S,Z)-1^5,10,10-trimethyl-1^2-(4-morpholinopiperidin-1-yl)-5,7-dioxo-1^8,1^9,6^1,6^2,6^3,6^4,6^5,6^6-octahydro-1^5H,1^7H-8-oxa-1(13,15)-pyrido[3',2':7,8][1,5]oxazonino[5,6-a]indola-2(4,2)-thiazola-6(1,3)-pyridazinacycloundecaphane-4-yl)cyclopropane-1-carb oxamide] |  |  |
| 1.02 | 0.2 | 6.2 | 14.9 | CC1OCCCn2c(c3c4cc(ccc42)-c2csc(n2)CC(NC(=O)C2CC2C(F)F)C(=O)N2CCCC(N2)C(=O)OCC(C)(C)C3)-c2cc(N3CCN(C4CCOCC4)CC3)cnc21 [Example 109, (1S,2S)-2-(difluoromethyl)-N-((1^5S,6^3S,4S,Z)-1^5,10,10-trimethyl-5,7-dioxo-1^2-(4-(tetrahydro-2H -pyran-4-yl)piperazin-1-yl)-18, 1^9,6^1,6^2,6^3 ,6^4,6^5,6^6-octahydro-1^5H,1^7H-8-oxa-1(13,15)-pyrido[3',2' :7,8][1,5]oxazonino[5,6-a]indola-2(4,2)-thiazola-6(1,3)-pyridazinacycloundecaphane-4-yl)cyclo propane-1-carboxamide] |  |  |
| 1.12 | 0.15 | 4.17 | 14 | CC1OCCCn2c(c3c4cc(ccc42)-c2csc(n2)CC(NC(=O)C2CC2C(F)F)C(=O)N2CCCC(N2)C(=O)OCC(C)(C)C3)-c2cc(N3CCN4CCOCC4C3)cnc21 [Example 110, (1S,2S)-2-(difluoromethyl)-N-((1^5S,6^3S,4S,Z)-1^2-((S)-hexahydropyrazino[2,1-c][1,4]oxazin-8(1 H)-yl)-1^5,10,10-trimethyl-5,7-dioxo-1^8,1^9,6^1,6^2,6^3,6^4,6^5,6^6-octahydro-1^5H,1^7H-8-oxa-1(13,15)-pyrido[3',2':7,8][1,5]oxazonino[5,6-a]indola-2(4,2)-thiazola-6(1,3)-pyridazinacycloundecaphane-4-yl)cyclopropane-1-carboxamide] |  |  |
| 2.68 | 0.34 | 8.39 | 34.2 | CC1OCCCn2c(c3c4cc(ccc42)-c2csc(n2)CC(NC(=O)C2CC2C(F)F)C(=O)N2CCCC(N2)C(=O)OCC(C)(C)C3)-c2cc(N3CCNCC3)cnc21 [Example 112, (1S,2S)-2-(difluoromethyl)-N-((1^5S,6^3S,4S,Z)-1^5,10,10-trimethyl-5,7-dioxo-1^2-(piperazin-1-yl)-1 ^8,1^9,6^1,6^2,6^3,6^4,6^5,6^6-octahydro-1^5H,1^7H-8-oxa-1(13,15)-pyrido[3',2':7,8][1,5]oxazonino[5,6-a]indola-2(4,2)-thiazola-6(1,3)-pyridazinacycloundecaphane-4-yl)cyclopropane-1-carboxamide] |  |  |
| 3.6 | 0.54 | 7.1 | 23.9 | COC1CCN(c2cnc3c(c2)-c2c4c5cc(ccc5n2CCCOC3C)-c2csc(n2)CC(NC(=O)C2CC2C(F)F)C(=O)N2CCCC(N2)C(=O)OCC(C)(C)C4)CC1 [Example 113, (1S,2S)-2-(difluoromethyl)-N-((1^5S,6^3S,4S,Z)-1^2-(4-methoxypiperidin-1-yl)-1^5,10,10-trimethyl-5,7-dioxo-1^8,1^9,6^1,6^2,6^3,6^4,6^5,6^6-octahydro-1^5H, 1^7H-8-oxa-1(13,15)-pyrido[3',2':7,8][1,5]oxazonino[5,6-alindola-2(4,2)-thiazola-6(1,3)-pyridazinacycloundecaphane-4-yl)cyclopropane-1-carbox amide] |  |  |
| 15.7 | 3.4 | 19.4 | 65.8 | CC1OCCCn2c(c3c4cc(ccc42)-c2csc(n2)CC(NC(=O)C2CC2C(F)F)C(=O)N2CCCC(N2)C(=O)OCC(C)(C)C3)-c2cc(N3CCC(F)(F)CC3)cnc21 [Example 114, (1S,2S)-2-(difluoromethyl)-N-((1^5S,6^3S,4S,Z)-1^2-(4,4-difluoropiperidin-1-yl)-1^5,10,10-trimethyl-5,7-dioxo-1^8,1^9,6^1,6^2,6^3,6^4,6^5,6^6-octahydro-1^5H, 1^7H-8-oxa-1(13,15)-pyrido[3',2':7,8][1,5]oxazonino[5,6-alindola-2(4,2)-thiazola-6(1,3)-pyridazinacycloundecaphane-4-yl)cyclopropane-1-carbox amide] |  |  |
| 1.72 | 0.9 | 4.28 | 16.3 | CC1OCCCn2c(c3c4cc(ccc42)-c2csc(n2)CC(NC(=O)C2CC2C(F)F)C(=O)N2CCCC(N2)C(=O)OCC(C)(C)C3)-c2cc(N3CC(N4CCOCC4)C3)cnc21 [Example 115, (1S,2S)-2-(difluoromethyl)-N-((1^5S,6^3S,4S,Z)-1^5,10,10-trimethyl-1^2-(3-morpholinoazetidin-1-yl) -5,7-dioxo-1^8,1^9,6^1,6^2,6^3,6^4,6^5,6^6-octahydro-1^5H,1^7H-8-oxa-1(13,15)-pyrido[3',2':7,8][1,5]oxazonino[5,6-a]indola-2(4,2)-thiazola-6(1,3)-pyridazinacycloundecaphane-4-yl)cyclopropane-1-carbox amide] |  |  |
| 8.27 | 4.1 | 9.57 | 37.8 | CC1OCCCn2c(c3c4cc(ccc42)-c2csc(n2)CC(NC(=O)C24CC(C)(C2)C4)C(=O)N2CCCC(N2)C(=O)OCC(C)(C)C3)-c2cc(N3CCOCC3)cnc21 (stereo not drawn) [Example 116, 3-methyl-N-((1^5S6^3S4S,Z)-1^5,10,10-trimethyl-1^2-morpholino-5,7-dioxo-1^8,1^9,6^1,6^2,6^3,6^4,6^5,6^6-octahydro-1^5H,1^7H-8-oxa-1(13,15)-pyrido[3',2':7,8][1,5]oxazonino[5,6-a]indola-2(4,2)-thiazola-6 (1,3)-pyridazinacycloundecaphane-4-yl)bicyclo[1.1.1]pentane-1-carboxamide] |  |  |
| 0.86 | 0.21 | 1.8 | 8.1 | CC1OCCCn2c(c3c4cc(ccc42)-c2csc(n2)CC(NC(=O)C2CC2C(F)F)C(=O)N2CCCC(N2)C(=O)OCC(C)(C)C3)-c2cc(N3CCCC(N(C)C)C3)cnc21 [Example 117, (1S,2S)-2-(difluoromethyl)-N-((1^5S,6^3S,4S,Z)-1^2-(3-(dimethylamino)piperidin-1-yl)-1^5,10,10-trimethyl-5,7-dioxo-1^8,1^9,6^1,6^2,6^3,6^4,6^5,6^6-octahydro-1^5H,1^7H-8-oxa-1(13,15)-pyrido[3',2':7,8][1,5]oxazonino[5,6-a]indola-2(4,2)-thiazola-6(1,3)-pyridazinacycloundecaphane-4-yl)cyclopropane-1-carboxamide] |  |  |
| 3.77 | 1.5 | 7.2 | 30.6 | CC1OCCCn2c(c3c4cc(ccc42)-c2csc(n2)CC(NC(=O)C2CC2C)C(=O)N2CCCC(N2)C(=O)OCC(C)(C)C3)-c2cc(N3CCOCC3)cnc21 [Example 118, (1S,2S)-2-methyl-N-((1^5S,6^3S,4S,Z)-1^5,10,10-trimethyl-1^2-morpholino-5,7-dioxo-1^8,1^9,6^1,6^2,6^3,6 ^4,6^5,6^6-octahydro-1^5H,1^7H-8-oxa-1(13,15)-pyrido[3',2':7,8][1,5]oxazonino[5,6-a]indola-2(4,2)-thiazola-6(1,3)-pyridazinacycloundecaphane-4-yl)cyclopropane-1-carboxamide] |  |  |

| SMILES | IC50 [1, 3] [nM] | IC50 [2, 4] [nM] | IC50 (KRAS G12D-cRAF) [nM] | IC50 (KRAS G12V-cRAF) [nM] | IC50 [1] [nM] | IC50 [2] [nM] |
| --- | --- | --- | --- | --- | --- | --- |
| CC1OCCCn2c(c3c4cc(ccc42)-c2csc(n2)CC(NC(=O)C2CC2C(F)F)C(=O)N2CCCC(N2)C(=O)OCC(C)(C)C3)-c2cc(N3CCN(C4CN(C)C4)CC3)cnc21 [Example 108, (1S,2S)-2-(difluoromethyl)-N-((1^5S,6^3S,4S,Z)-1^5,10,10-trimethyl-1^2-(4-(1-methylazetidin-3-yl)piperazin-1-yl)-5,7-dioxo-1^8, 1^9,6^1,6^2,6^3,6^4,6^5 ,6^6-octahydro-1^5H,1^7H-8-oxa-1(13,15)-pyrido[3',2':7,8][1,5]oxazonino[5,6-a]indola-2(4,2)-thiazola-6(1,3)-pyridazinacycloundecaphane-4-yl)cycloprop ane-1-carboxamide] |  |  | 6.1 | 37.9 | 0.58 | 0.28 |
